Our source for the T/C values is PubChem BioAssay AID256 (DTP/NCI, 2004).

The test system of the experiment is CD2F1 mice, L1210 leukemia ip, survival T/C. Nature of the experiment: NCI In Vivo Anticancer Drug Screen. Data for tumor model L1210 Leukemia (intraperitoneal) in CD2F1 (CDF1) mice. As to conditions: higher = longer survival. In outline: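 Ratio T/C, where T is the treated-group value and C the vehicle-dosed control value, from mice implanted with a transplantable tumor.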

The mark [1] stands for this setting: endpoint: mean survival time, dose: 100.0 mg/kg/injection, schedule: Q01DX001 (ip), vehicle: saline with Tween-80.
[2] abbreviates: endpoint: mean survival time, dose: 200.0 mg/kg/injection, schedule: Q01DX001 (ip), vehicle: saline with Tween-80.
[3] abbreviates: endpoint: mean survival time, dose: 400.0 mg/kg/injection, schedule: Q01DX001 (ip), vehicle: saline with Tween-80.
The mark [4] stands for this setting: endpoint: mean survival time, dose: 50.0 mg/kg/injection, schedule: Q01DX009 (ip), vehicle: saline with Tween-80.
The mark [5] stands for this setting: endpoint: mean survival time, dose: 100.0 mg/kg/injection, schedule: Q01DX009 (ip), vehicle: saline with Tween-80.
The mark [6] stands for this setting: endpoint: mean survival time, dose: 200.0 mg/kg/injection, schedule: Q01DX009 (ip), vehicle: saline with Tween-80.

“And” between values parts separate entries of the source, which are not always exact repeats. Identical values can stand only once. Toxic doses and inconclusive results are not listed. Non-standard residues stand in square brackets, D forms with d. Residues, ends and D or L forms follow the SMILES beside them. ξ: configuration not given here. ξF = NC(Cc1ccccc1)C(=O)O

Regarding `CCOC(=O)C1=C(Nc2ccc(OC)cc2)C(N)=NC1=N`, the T/C was 98 % of control (endpoint: median survival time, dose: 6.25 mg/kg/injection, schedule: Q01DX005 (ip), vehicle: suspension in saline); 101 % of control and 107 % of control (endpoint: median survival time, dose: 12.5 mg/kg/injection, schedule: Q01DX005 (ip), vehicle: suspension in saline); 101 % of control and 107 % of control (endpoint: median survival time, dose: 25.0 mg/kg/injection, schedule: Q01DX005 (ip), vehicle: suspension in saline); 105 % of control and 108 % of control (endpoint: median survival time, dose: 36.0 mg/kg/injection, schedule: Q01DX005 (ip), vehicle: saline); 111 % of control (endpoint: median survival time, dose: 50.0 mg/kg/injection, schedule: Q01DX005 (ip), vehicle: saline); 101 % of control and 107 % of control (endpoint: median survival time, dose: 50.0 mg/kg/injection, schedule: Q01DX005 (ip), vehicle: suspension in saline). In addition, the T/C reads like this: (endpoint: median survival time, dose: 60.0 mg/kg/injection, schedule: Q01DX005 (ip), vehicle: saline) 102 % of control; (endpoint: median survival time, dose: 100.0 mg/kg/injection, schedule: Q01DX005 (ip), vehicle: saline) 106 % of control; (endpoint: median survival time, dose: 100.0 mg/kg/injection, schedule: Q01DX005 (ip), vehicle: suspension in saline) 117 % of control.

On to `CO/N=C(\N)c1ncn(C2OC3COP(=O)(O)OC3C2O)c1N` (stereo not drawn), for which the T/C (endpoint: median survival time, dose: 49.8 mg/kg/injection, schedule: Q01DX005 (ip), vehicle: saline) is 98 % of control; the T/C (endpoint: median survival time, dose: 99.5 mg/kg/injection, schedule: Q01DX005 (ip), vehicle: saline) is 100 % of control; the T/C (endpoint: median survival time, dose: 199.1 mg/kg/injection, schedule: Q01DX005 (ip), vehicle: saline) is 96 % of control.

In the case of `COc1ccc(S(=O)(=O)NCCN(C)C)cc1NC(C)=O`, the T/C was 90 % of control (endpoint: mean survival time, dose: 100.0 mg/kg/injection, schedule: Q01DX001 (ip), vehicle: saline); 93 % of control (endpoint: mean survival time, dose: 200.0 mg/kg/injection, schedule: Q01DX001 (ip), vehicle: saline); 100 % of control (endpoint: mean survival time, dose: 400.0 mg/kg/injection, schedule: Q01DX001 (ip), vehicle: saline).

For the compound `NC(CCc1cc(O)ccc1O)C(=O)O` (stereo not drawn), the T/C is, setting by setting: (endpoint: mean survival time, dose: 100.0 mg/kg/injection, schedule: Q01DX009 (ip), vehicle: saline) 98 % of control; (endpoint: mean survival time, dose: 200.0 mg/kg/injection, schedule: Q01DX009 (ip), vehicle: saline) 98 % of control; (endpoint: mean survival time, dose: 400.0 mg/kg/injection, schedule: Q01DX009 (ip), vehicle: saline) 102 % of control.

On to `CCC(CNCC(=O)O)(C(=O)O)C(=O)O`, for which the T/C by setting is: (endpoint: mean survival time, dose: 12.5 mg/kg/injection, schedule: Q04DX002 (ip), vehicle: saline with Tween-80) 104 % of control; (endpoint: mean survival time, dose: 25.0 mg/kg/injection, schedule: Q04DX002 (ip), vehicle: saline with Tween-80) 93 % of control; (endpoint: mean survival time, dose: 50.0 mg/kg/injection, schedule: Q04DX002 (ip), vehicle: saline with Tween-80) 111 % of control.

As for `NC(N)=NC(N)=Nc1ccc([As](=O)(O)O)c(O)c1`, the T/C (endpoint: mean survival time, dose: 100.0 mg/kg/injection, schedule: Q01DX009 (ip), vehicle: saline sonified) was 111 % of control.

Take `O=C(O)C(O)(O)C(=O)O`: the T/C under setting [1] was 102 % of control, the T/C under setting [2] is 102 % of control and the T/C under setting [3] was 102 % of control.

Take `CO[C@@H]1C2=CC=CC=C[C@H]2n2c(=O)n(C)c(=O)n21`: the T/C by setting is: (endpoint: median survival time, dose: 37.5 mg/kg/injection, schedule: Q01DX005 (ip), vehicle: other) 95 % of control; (endpoint: median survival time, dose: 75.0 mg/kg/injection, schedule: Q01DX005 (ip), vehicle: other) 100 % of control; (endpoint: median survival time, dose: 150.0 mg/kg/injection, schedule: Q01DX005 (ip), vehicle: other) 95 % of control.

Turning to `O=C1c2ccccc2C(=O)N1CCN1C(=O)c2ccccc2C1=O`, the T/C reads like this: (endpoint: mean survival time, dose: 75.0 mg/kg/injection, schedule: Q01DX001 (ip), vehicle: saline with Tween-80) 94 % of control; (endpoint: mean survival time, dose: 150.0 mg/kg/injection, schedule: Q01DX001 (ip), vehicle: saline with Tween-80) 95 % of control; (endpoint: mean survival time, dose: 300.0 mg/kg/injection, schedule: Q01DX001 (ip), vehicle: saline with Tween-80) 94 % of control.

On to `O=C1C2CCN(CC2)C1CN1CCOCC1` (stereo not drawn), for which the T/C is 96 % of control (endpoint: mean survival time, dose: 12.5 mg/kg/injection, schedule: Q04DX003 (ip), vehicle: saline); 100 % of control (endpoint: mean survival time, dose: 25.0 mg/kg/injection, schedule: Q04DX003 (ip), vehicle: saline); 111 % of control (endpoint: mean survival time, dose: 50.0 mg/kg/injection, schedule: Q04DX003 (ip), vehicle: saline).

For the compound `NCC(=O)NC(Cc1ccccc1)C(=O)O` (stereo not drawn) (H-Gly-[ξF]-OH), the T/C runs as follows: under setting [4], 102 % of control; under setting [5], 100 % of control; under setting [6], 100 % of control.

With `O=Cc1ccc([N+](=O)[O-])s1`, the T/C was 102 % of control and 108 % of control (endpoint: mean survival time, dose: 3.12 mg/kg/injection, schedule: Q01DX009 (ip), vehicle: saline with Tween-80); 96 % of control and 102 % of control (endpoint: mean survival time, dose: 6.25 mg/kg/injection, schedule: Q01DX009 (ip), vehicle: saline with Tween-80); 97 % of control and 98 % of control (endpoint: mean survival time, dose: 12.5 mg/kg/injection, schedule: Q01DX009 (ip), vehicle: saline with Tween-80); 104 % of control and 105 % of control (endpoint: mean survival time, dose: 25.0 mg/kg/injection, schedule: Q01DX009 (ip), vehicle: saline with Tween-80); 103 % of control and 107 % of control under setting [4]; 109 % of control under setting [5].

For the compound `CC1(C)C2CC=C(CCCc3ccccc3)C1C2` (stereo not drawn), the T/C is, setting by setting: (endpoint: mean survival time, dose: 100.0 mg/kg/injection, schedule: Q04DX003 (ip), vehicle: saline with Tween-80) 98 % of control; (endpoint: mean survival time, dose: 200.0 mg/kg/injection, schedule: Q04DX003 (ip), vehicle: saline with Tween-80) 93 % of control.

On to `CCCC/C=C/COCC`, for which the T/C under setting [4] is 97 % of control, the T/C under setting [5] was 94 % of control and the T/C under setting [6] was 97 % of control.

For `COC1OC(Nc2nc(SC)[nH]c(=O)c2C(C)=O)C(O)C(O)C1O` (stereo not drawn), the T/C by setting is: (endpoint: median survival time, dose: 12.5 mg/kg/injection, schedule: Q01DX005 (ip), vehicle: saline with Tween-80) 98 % of control; (endpoint: median survival time, dose: 25.0 mg/kg/injection, schedule: Q01DX005 (ip), vehicle: saline with Tween-80) 97 % of control; (endpoint: median survival time, dose: 50.0 mg/kg/injection, schedule: Q01DX005 (ip), vehicle: saline with Tween-80) 94 % of control; (endpoint: median survival time, dose: 100.0 mg/kg/injection, schedule: Q01DX005 (ip), vehicle: saline with Tween-80) 95 % of control; (endpoint: median survival time, dose: 200.0 mg/kg/injection, schedule: Q01DX005 (ip), vehicle: saline with Tween-80) 97 % of control.

As for `CS(=O)(=O)Nc1ccc(Nc2c3ccccc3nc3cc(N)ccc23)cc1`, the T/C was 160 % of control (endpoint: mean survival time, dose: 1.5 mg/kg/injection, schedule: Q01DX001 (ip), vehicle: saline); 162 % of control (endpoint: mean survival time, dose: 3.0 mg/kg/injection, schedule: Q01DX001 (ip), vehicle: saline); 152 % of control (endpoint: mean survival time, dose: 3.0 mg/kg/injection, schedule: Q01DX009 (ip), vehicle: saline); 114 % of control (endpoint: mean survival time, dose: 5.0 mg/kg/injection, schedule: Q01DX009 (ip), vehicle: saline); 175 % of control (endpoint: mean survival time, dose: 12.0 mg/kg/injection, schedule: Q01DX001 (ip), vehicle: saline).

`OC1CC2c3ccccc3C1c1cccc[n+]12` (stereo not drawn): the T/C (endpoint: mean survival time, dose: 100.0 mg/kg/injection, schedule: Q04DX003 (ip), vehicle: Klucel (hydroxypropylcellulose) (HPC)) was 94 % of control.

Consider `Cc1cccc2cc3c(sc4ccccc43)c(C)c12`, for which the T/C reads like this: (endpoint: mean survival time, dose: 7.9 mg/kg/injection, schedule: Q04DX003 (ip), vehicle: other) 101 % of control; (endpoint: mean survival time, dose: 15.7 mg/kg/injection, schedule: Q04DX003 (ip), vehicle: other) 97 % of control; (endpoint: mean survival time, dose: 31.3 mg/kg/injection, schedule: Q04DX003 (ip), vehicle: other) 97 % of control; (endpoint: mean survival time, dose: 62.5 mg/kg/injection, schedule: Q04DX003 (ip), vehicle: other) 97 % of control; (endpoint: mean survival time, dose: 125.0 mg/kg/injection, schedule: Q04DX003 (ip), vehicle: other) 93 % of control.

Consider `CCCCCCCC(=O)/C=C/Sc1n[nH]c(=O)[nH]c1=O`, for which the T/C is 94 % of control (endpoint: mean survival time, dose: 12.5 mg/kg/injection, schedule: Q01DX005 (ip), vehicle: distilled water + Tween-80); 102 % of control (endpoint: mean survival time, dose: 25.0 mg/kg/injection, schedule: Q01DX005 (ip), vehicle: distilled water + Tween-80); 107 % of control (endpoint: mean survival time, dose: 50.0 mg/kg/injection, schedule: Q01DX005 (ip), vehicle: distilled water + Tween-80).

Consider `COc1cc(OC)cc(C(c2nccc3cc(OC)c(OC)cc23)C(O)(C(F)(F)F)C(F)(F)F)c1` (stereo not drawn), for which the T/C by setting is: under setting [1], 97 % of control; under setting [5], 90 % of control; under setting [2], 93 % of control; under setting [6], 93 % of control; under setting [3], 86 % of control; (endpoint: mean survival time, dose: 400.0 mg/kg/injection, schedule: Q01DX009 (ip), vehicle: saline with Tween-80) 89 % of control.
